According to patent publication US9969715B2, “Compounds useful for treating cancer” (ABIVAX, priority 2012, dated 2018):

What was measured:
[1] = tested on: MDA-MB231-luc-D3H2LN cells; assay: Toxicity assay under normal cell culture conditions (MTS), MDA cells; format: cell-based, human; conditions: MDA-MB231-luc-D3H2LN cells, MEM+10% FBS, 72 h incubation, MTS
Protocol: (§1) In order to detect possible toxic effects, all compounds are tested in parallel in a viability assay. The viability assay is performed in parallel on serum-starved cells (as in the invasion assay) vs. cells under normal culture conditions (10% FBS).
(§2) Toxicity Assays (Under Normal Cell Culture Conditions):
(§3) Compounds were prepared as for the invasion assay, and then added to either MDA-MB231-luc-D3H2LN cells (2000/well) under normal culture conditions (MEM+10% FBS), or human PBMC (75000/well, in RPMI+10% FBS+IL-2) in standard 96-well tissue culture plates. After 72 h incubation, a standard MTS assay was performed according to the manufacturer's instructions (Promega Ref. G3581). Compounds were tested at various concentrations (concentration-response curves) in order to determine the concentrations at which 50% toxicity is obtained.

human PBMC = assay: Toxicity assay under normal cell culture conditions (MTS), PBMC; format: cell-based; conditions: human PBMC, RPMI+10% FBS+IL-2, 72 h incubation, MTS
Protocol: as §2, §3

[2] = tested on: MDA-MB231-luc-D3H2LN cells; assay: Invasion of MDA-MB231-D3H2LN cells into collagen (example 15 = procedure 2, 48 h drug pre-incubation); format: cell-based; conditions: concentration giving 50% of the anti-invasive effect of 10 μM Y-27632; 48 h pre-incubation, 24 h with 5% FBS; read-out: MDA: Inhib. of invasion: 0.5 × eff. of 10 μM Y-27632 at (μM) av
Protocol: Effect of Drug Compounds on Invasion of MDA-MB231-D3H2LN Cells into Collagen
Preparation of cells at the bottom of a collagen gel: Cells are suspended in a liquid collagen solution (4° C.), distributed into BSA-coated wells, and then collected at the bottom of the wells by centrifugation. The collagen is then solidified by incubation at 37° C. The BSA coating improves the adhesion of the collagen gel.
Pre-treatment with the compounds to be tested: Concentrated drug solutions are then added on top of the collagen, and cells are pre-incubated for 48 h with the drugs at low serum conditions (0.025% FBS).
Stimulation of invasion: Medium with 5% FBS is then added in order to stimulate invasion of the cells into the collagen gel.
(§4) Viability assay, fixation and staining: Following another 24 h incubation, an MTS assay is performed directly on the cells in the collagen. Then, cells are fixed and nuclei are stained.
Analysis: Finally, plates are analyzed using an automated microscope. Fluorescent beads that have been included into the BSA coating serve to detect the bottom of the wells. Pictures of the stained nuclei are taken at the same level (0 μm) as well as 25 μm and 50 μm above.
Negative control: No drug (just DMSO at equivalent concentration). Positive control: 10 μM Y-27632. To avoid edge effects, cells are added only to the 60 central wells B2-G11; lines A and H receive only collagen without cells (blank for the MTS assay) columns 1 and 12 remain free. Each drug is tested at least in triplicate. The positive and negative controls should be tested in several triplicates at different positions on each plate. Typical plate map (−=negative control, +=positive control, 1-12=12 different test conditions, i. e. different drug compounds or concentrations):
Preparation of 4× concentrated drug solutions in MEM+0.1% FBS+2% Lutrol E-400+0.8% DMSO: Mix each 620 μl MEM+0.1% FBS+2% Lutrol E-400 with each 4 μl DMSO+each 1 μl of the 50 mM compound stock solutions (yielding […] and 0.8% DMSO). If the desired final compound concentration is <5 μM, then further dilute in MEM+0.1% FBS+0.8% DMSO. Negative control: MEM+0.1% FBS+2% Lutrol E-400+0.8% DMSO without any drug. Preparation of the positive control: Mix 4.5 ml MEM+0.1% FBS+2% Lutrol E-400+[…] with 36 μl 5 mM Y-27632 (freshly thawed aliquot) (yielding 40 μM).
add each 33 μl/well of the 4× concentrated drug solutions in MEM+0.1% FBS+2% Lutrol E-400+0.8% DMSO to the corresponding wells (yields 1× concentrated drugs in MEM+0.025% FBS+0.5% Lutrol E-400+0.2% DMSO final)
incubate 48 h at 37° C./5% CO2
incubate 24 h at 37° C./5% CO2
for each well, calculate the mean invasion distance of the counted cells: (25 μm×number of cells at 25 μm+50 μm×number cells at 50 μm)/sum of cells at 0, 25 and 50 μm
invalidate any replicate with a CV≥50% (compound to be re-tested, or assay to be repeated if CV≥50% for the untreated negative control or the compound Y-27632-treated positive control). Y27632 is a selective inhibitor of the Rho-associated protein kinase p160ROCK of the following formula
validate the assay only if the mean invasion distance of the cells treated with 10 μM Y-27632 (positive control) is decreased by ≥40% as compared to the untreated negative control
(§5) Final analysis: Determine the concentration at which a given compound has 50% of the anti-invasive effect of the positive control (10 μM Y-27632). Determine the toxicity (=loss of viability) of the compound under these conditions.
Here, invasion (into collagen) is the concentration of the compound necessary to reach 50% of the inhibition effect compared to 10 μM Y-27632.
Standard operating procedure 2 is exactly the same as the procedure as described in example 15.

[3] = tested on: MDA-MB231-luc-D3H2LN cells; assay: Viability (MTS) assay on the cells in collagen under invasion assay conditions; format: cell-based, human; conditions: loss of viability at the concentration giving 0.5 × effect of 10 μM Y-27632, invasion assay conditions
Protocol: as §4, §1
Viability Assay: MTS Assay:
add each 33 μl/well of the MTS reagent, incubate 3-4 h at 37° C./5% CO2
read absorbance at 490 nm (proportional to the viability)
calculate the background-corrected signals by subtracting the means of the background signals in absence of cells from the corresponding signals in presence of cells
normalize the background-corrected signals with respect to the mean signal of the negative controls (no drug) (viabilities are thus expressed in “% of control”)
as §5

Row | Compound | IC50 [2] [µM] | MDA tox: 50% tox. at (μM) av [1] | PBMC tox.: 50% tox. at (μM) av (human PBMC) | (+ MDA tox. under these cond.) % tox [3] [%]
1 | CCN(CC)CCCNC(=O)c1ccnc(Nc2cccc(C(=O)N(C)c3ccncc3)c2)c1 [Compound 38, N-(3-(diethylamino)propyl)-2-((3-(methyl(pyridin-4-yl)carbamoyl)phenyl)amino)isonicotinamide] | 3.75 | >>100 μM | >>100 μM | <10
2 | CN(C(=O)c1cccc(Nc2cccc(C(=O)NCCCN3CCCC3)c2)c1)c1ccncc1 [Compound 18, N-methyl-N-(pyridin-4-yl)-3-((3-((3-(pyrrolidin-1-yl)propyl)carbamoyl)phenyl)amino)benzamide] | 3.45 | >100 µM | >100 µM | <10
3 | CCN(CC)CCCNC(=O)c1cccc(Nc2cc(C(=O)Nc3ccncc3)ccn2)c1 [Compound 47, 2-((3-((3-(diethylamino)propyl)carbamoyl)phenyl)amino)-N-(pyridin-4-yl)isonicotinamide] | 2.2 | >100 µM | >100 µM | <10
4 | CN(C(=O)c1cccc(Nc2cccc(S(=O)(=O)NCCCN3CCCCC3)c2)c1)c1ccncc1 [Compound 24, N-methyl-3-((3-(N-(3-(piperidin-1-yl)propyl)sulfamoyl)phenyl)amino)-N-(pyridin-4-yl)benzamide] | 3.55 | >100 µM | ≥100 µM | <10
5 | O=C(Nc1ccncn1)c1cccc(Nc2cccc(S(=O)(=O)NCCCN3CCCCC3)c2)c1 [Compound 27, 3-((3-(N-(3-(piperidin-1-yl)propyl)sulfamoyl)phenyl)amino)-N-(pyrimidin-4-yl)benzamide] | 2.8 | 66 µM | 61 µM | <10
6 | CCN(CC)CCCNC(=O)c1cccc(Nc2cccc(C(=O)N(C)c3ccncc3)c2)c1 [Compound 17, 3-((3-((3-(diethylamino)propyl)carbamoyl)phenyl)amino)-N-methyl-N-(pyridin-4-yl)benzamide] | 3 | >100 µM | >100 µM | <10
7 | CCN(CC)CCCNC(=O)c1cccc(Nc2cccc(C(=O)N(C)c3ccncc3)c2)n1 [Compound 37, N-(3-(diethylamino)propyl)-6-((3-(methyl(pyridin-4-yl)carbamoyl)phenyl)amino)picolinamide] | 3.75 | >>100 μM | >>100 μM | <10
8 | CCN(CC)CCCNS(=O)(=O)c1cccc(Nc2cccc(C(=O)Nc3ccncn3)c2)c1 [Compound 26, 3-((3-(N-(3-(diethylamino)propyl)sulfamoyl)phenyl)amino)-N-(pyrimidin-4-yl)benzamide] | 3.6 | 73 µM | 85 µM | <10

Stronger by IC50 [2], values ahead:

Row | IC50 [2] [µM] | Compound | MDA tox: 50% tox. at (μM) av [1] | PBMC tox.: 50% tox. at (μM) av (human PBMC) | (+ MDA tox. under these cond.) % tox [3] [%]
9 | 0.28 | O=C(NCCCN1CCOCC1)c1cccc(Nc2cccc(C(=O)Nc3ccncn3)c2)c1 [Compound 30, N-(3-morpholinopropyl)-3-((3-(pyrimidin-4-ylcarbamoyl)phenyl)amino)benzamide] | 75 µM | >100 µM | <10
10 | 0.11 | O=C(NCCCN1CCCCC1)c1cccc(Nc2cccc(C(=O)Nc3ccncc3)c2)c1 [Compound 7, N-(3-(piperidin-1-yl)propyl)-3-((3-(pyridin-4-ylcarbamoyl)phenyl)amino)benzamide] | 25 µM | 38 µM | <10
11 | 1.45 | CN1CCN(CCCNC(=O)c2ccnc(Nc3cccc(C(=O)N(C)c4ccncc4)c3)c2)CC1 [Compound 39, 2-((3-(methyl(pyridin-4-yl)carbamoyl)phenyl)amino)-N-(3-(4-methylpiperazin-1-yl)propyl)isonicotinamide] | 19 µM | 74 µM | <10
12 | 0.15 | O=C(NCCCN1CCCCC1)c1cccc(Nc2cccc(C(=O)Nc3ccncn3)c2)c1 [Compound 29, N-(3-(piperidin-1-yl)propyl)-3-((3-(pyrimidin-4-ylcarbamoyl)phenyl)amino)benzamide] | 33 µM | 44 µM | <10
13 | 0.53 | O=C(Nc1ccncc1)c1cccc(Nc2cccc(S(=O)(=O)NCCN3CCCCC3)c2)c1 [Compound 10, 3-((3-(N-(2-(piperidin-1-yl)ethyl)sulfamoyl)phenyl)amino)-N-(pyridin-4-yl)benzamide] | 45 µM | 29 µM | <10
14 | 0.2 | CN1CCN(CCCNC(=O)c2ccnc(Nc3cccc(C(=O)Nc4ccncn4)c3)c2)CC1 [Compound 42, N-(3-(4-methylpiperazin-1-yl)propyl)-2-((3-(pyrimidin-4-ylcarbamoyl)phenyl)amino)isonicotinamide] | ≥100 µM | >100 µM | <10
15 | 0.38 | CN1CCN(CCCNC(=O)c2ccnc(Nc3cc(C(=O)Nc4ccncc4)ccn3)c2)CC1 [Compound 45, N-(3-(4-methylpiperazin-1-yl)propyl)-2-((4-(pyridin-4-ylcarbamoyl)pyridin-2-yl)amino)isonicotinamide] | >100 µM | >100 µM | <10
16 | 0.16 | CN1CCN(CCCNC(=O)c2cccc(Nc3cccc(C(=O)Nc4ccncc4)c3)c2)CC1 [Compound 6, N-(3-(4-methylpiperazin-1-yl)propyl)-3-((3-(pyridin-4-ylcarbamoyl)phenyl)amino)benzamide] | 58 µM | 100 µM | <10
